Earlier results on two molecules are cited in patent publication EP3697221B1, “AQUEOUS SUSPENSION CONCENTRATES BASED ON 2-[(2,4-DICHLOROPHENYL)-METHYL]-4,4'-DIMETHYL-3-ISOXAZOLIDINONE” (Bayer Aktiengesellschaft, priority 2017, dated 2019).

For the data set the following is noted: water.

Consider `CC1(C)CON(Cc2ccc(Cl)cc2Cl)C1=O` [DCPMI, 2-[(2,4-Dichlorphenyl)-methyl]-4,4'-dimethyl-3-isoxazolidinone], for which the Wasserlöslichkeit is on record as 39,5 ppm.
As to `CC1(C)CON(Cc2ccccc2Cl)C1=O` [Clomazone, 2-(2-chlorobenzyl)-4,4-dimethyl-1,2-oxazolidin-3-one], the Wasserlöslichkeit is 1000 ppm.
